Measurements taken from patent EP3345917A1, “ANTIPROTOZOAL COMPOUNDS” (Bacoba AG, priority 2017, dated 2018).
Non-standard residues stand in square brackets, D forms with d. Residues, ends and D or L forms follow the SMILES beside them. *: point of attachment. Hexenoyl(2E,4S-Me) = CC[C@H](C)/C=C/C(=O)*; Leu(3R-OH) = CC(C)[C@@H](O)[C@H](N)C(=O)O; NH((S)CH(Me)CH2NMe2) = C[C@@H](CN(C)C)N*; Gly(octyl) = CCCCCCCC[C@H](N)C(=O)O; Piperazinyl(4-Me) = CN1CCN(*)CC1; Nle = CCCC[C@H](N)C(=O)O; Hexanoyl = CCCCCC(=O)*; Aib = CC(C)(N)C(=O)O; βAla = NCCC(=O)O

Legend:
[1] = system: Axenically grown Leishmania donovani amastigotes (strain MHOM/ET/67/L82); experiment: Axenic Leishmania donovani amastigote resazurin assay; type: cell-based; settings: In vitro inhibition, read-out: L.don. ax
Experimental: (§1) Tests were done in triplicate.
Axenically grown Leishmania donovani amastigotes (strain MHOM/ET/67/L82) were grown and tests were done as previously described using the resazurin assay (Räz B et al. Acta Tropica 1997, 68:139-147). The plates were developed for 2-4 hours and read on a Spectramax Gemini XS micro plate fluorometer (Molecular Devices Cooperation) using an excitation wavelength of 536 nm and emission wavelength of 588 nm. Fluorescence development was measured and expressed as percentage of the negative control. […] Data were transferred to the graphic programme Softmax Pro (Molecular Devices), with which IC50 values were calculated.

[2] = system: Trypanosoma brucei rhodesiense (STIB 900 strain); experiment: Alamar Blue assay against Trypanosoma brucei rhodesiense grown in axenic medium; type: cell-based; settings: In vitro inhibition, read-out: T.b.rhod.
Experimental: as §1
Trypanosoma brucei rhodesiense (STIB 900) were grown in axenic medium as described by Baltz et al. (1985) The samples were tested using the Alamar Blue assay protocol (Baltz T et al. EMBO J 1985; 4:1273-1277) to determine the 50% inhibitory concentration (IC50). […] Melarsoprol (Arsobal®, Sanofi-Aventis, Switzerland) was used as a reference drug (IC50= 0.03 ± 0.01 µM). Its purity was over 95 %, as was certified by the supplier. The IC50 values were calculated by using Softmax Pro software (Molecular Devices Cooperation, Sunnyvale, CA).

Plasmodium falciparum = experiment: 3H-hypoxanthine incorporation assay against Plasmodium falciparum; type: cell-based; settings: In vitro inhibition, read-out: P.falc NF5
Experimental: as §1
IC50 values were calculated by linear interpolation.

[3] = Cytotoxicity assay on L6-cells (Alamar Blue); settings: rat, Cytotox L6, Cytotoxicity against rat myoblast cells (L6)
[4] = system: Trypanosoma cruzi trypomastigote forms (Tulahuen strain); experiment: Intracellular Trypanosoma cruzi assay in L6-cells, beta-galactosidase/CPRG readout; type: cell-based; settings: In vitro inhibition, read-out: T.cruzi.
Experimental: as §1
Trypanosoma cruzi trypomastigote forms (Tulahuen strain C2C4 containing β-galactosidase (Lac Z) gene) were cultured as described by Buckner et al. (Buckner FS et al. Antimicrob Agents Ch1996; 40: 2592-2597) in rat myoblast cells (L6-cells). […] After incubation, the substrate chlorophenyl red β-D-galactopyranoside agent CPRG/Nonident was added to all wells and a color change was developed within 2 to 6 h. The plates were read photometrically at 540 nm (Molecular Devices). Data were evaluated and IC50 values calculated using Softmax Pro software (Molecular Devices).

Row | Structure (SMILES) | IC50 [1] | IC50 [2] | IC50 (Plasmodium falciparum) | IC50 at 70 h [3] | IC50 [4]
1 | CCCCCCCC[C@H](NC(=O)[C@@H]1CCCN1C(=O)/C=C/[C@@H](C)CC)C(=O)N[C@H](C(=O)NCCC(=O)N[C@@H](C)CN(C)C)[C@H](O)C(C)C [Compound 5523, (2S)-N-[(1S,2R)-1-[(2-{[(2S)-1-(dimethylamino)propan-2-yl]carbamoyl}ethyl)carbamoyl]-2-hydroxy-3-methylbutyl]-2-{[(2S)-1-[(2E,4S)-4-methylhex-2-enoyl]pyrrolidin-2-yl]formamido}decanamide] | 482 nM | 2440 nM | 4750 nM | 8610 nM | 5730 nM
2 | CC[C@H](C)/C=C/C(=O)N1CCC[C@H]1C(=O)N[C@@H](C)C(=O)N[C@H](C(=O)NC(C)(C)C(=O)N[C@@H](CC(C)C)C(=O)N[C@@H](CC(C)C)C(=O)NC(C)(C)C(=O)NC(C)(C)C(=O)NCCC(=O)N[C@@H](C)CN(C)C)[C@H](O)C(C)C [Compound 5526, (2S,3R)-N-(1-{[(1S)-1-{[(1S)-1-{[1-({1-[(2-{[(2S)-1-(dimethylamino)propan-2-yl]carbamoyl}ethyl)carbamoyl]-1-methylethyl}carbamoyl)-1-methylethyl]carbamoyl}-3-methylbutyl]carbamoyl}-3-methylbutyl]carbamoyl}-1-methylethyl)-3-hydroxy-4-methyl-2-[(2S)-2-{[(2S)-1-[(2E,4S)-4-methylhex-2-enoyl]pyrrolidin-2-yl]formamido}propanamido]pentanamide] ({Hexenoyl(2E,4S-Me)}-PA[Leu(3R-OH)][Aib]LL[Aib][Aib][βAla]-{NH((S)CH(Me)CH2NMe2)}) | 286 nM | 2.35 nM | 83.8 nM | 3640 nM | 4500 nM
3 | CCCCCCCC[C@H](NC(=O)[C@H](C)NC(=O)/C=C/[C@@H](C)CC)C(=O)N[C@H](C(=O)NC(C)(C)C(=O)N[C@@H](CC(C)C)C(=O)N[C@@H](CC(C)C)C(=O)NC(C)(C)C(=O)NC(C)(C)C(=O)NCCC(=O)N[C@@H](C)CN(C)C)[C@H](O)C(C)C [Compound 5527, (2S)-N-[(1S,2R)-1-[(1-{[(1S)-1-{[(1S)-1-{[1-({1-[(2-{[(2S)-1-(dimethylamino)propan-2-yl]carbamoyl}ethyl)carbamoyl]-1-methylethyl}carbamoyl)-1-methylethyl]carbamoyl}-3-methylbutyl]carbamoyl}-3-methylbutyl]carbamoyl}-1-methylethyl)carbamoyl]-2-hydroxy-3-methylbutyl]-2-[(2S)-2-[(2E,4S)-4-methylhex-2-enamido]propanamido]decanamide] ({Hexenoyl(2E,4S-Me)}-A[Gly(octyl)][Leu(3R-OH)][Aib]LL[Aib][Aib][βAla]-{NH((S)CH(Me)CH2NMe2)}) | 1.1 nM | 1.8 nM | 8.4 nM | 274 nM | 67.9 nM
4 | CCCC[C@H](NC(=O)[C@@H]1CCCN1C(=O)/C=C/[C@@H](C)CC)C(=O)N[C@H](C(=O)NC(C)(C)C(=O)N[C@@H](CC(C)C)C(=O)N[C@@H](CC(C)C)C(=O)NC(C)(C)C(=O)NC(C)(C)C(=O)NCCC(=O)N[C@@H](C)CN(C)C)[C@H](O)C(C)C [Compound 5561, (2S)-N-[(1S,2R)-1-[(1-{[(1S)-1-{[(1S)-1-{[1-({1-[(2-{[(2S)-1-(dimethylamino)propan-2-yl]carbamoyl}ethyl)carbamoyl]-1-methylethyl}carbamoyl)-1-methylethyl]carbamoyl}-3-methylbutyl]carbamoyl}-3-methylbutyl]carbamoyl}-1-methylethyl)carbamoyl]-2-hydroxy-3-methylbutyl]-2-{[(2S)-1-[(2E,4S)-4-methylhex-2-enoyl]pyrrolidin-2-yl]formamido}hexanamide] ({Hexenoyl(2E,4S-Me)}-P[Nle][Leu(3R-OH)][Aib]LL[Aib][Aib][βAla]-{NH((S)CH(Me)CH2NMe2)}) | 4.1 nM | 0.7 nM | 4.5 nM | 356 nM | 162 nM
5 | CCCCCCCC[C@H](NC(=O)[C@@H]1CCCN1C(=O)/C=C/[C@@H](C)CC)C(=O)N[C@H](C(=O)NC(C)(C)C(=O)N[C@@H](CC(C)C)C(=O)N[C@@H](CC(C)C)C(=O)NC(C)(C)C(=O)NC(C)(C)C(=O)NCCC(=O)N1CCN(C)CC1)[C@H](O)C(C)C [Compound 5571, (2S)-N-[(1S,2R)-2-hydroxy-3-methyl-1-[(1-methyl-1-{[(1S)-3-methyl-1-{[(1S)-3-methyl-1-({1-methyl-1-[(1-methyl-1-{[3-(4-methylpiperazin-1-yl)-3-oxopropyl]carbamoyl}ethyl)carbamoyl]ethyl}carbamoyl)butyl]carbamoyl}butyl]carbamoyl}ethyl)carbamoyl]butyl]-2-{[(2S)-1-[(2E,4S)-4-methylhex-2-enoyl]pyrrolidin-2-yl]formamido}decanamide] ({Hexenoyl(2E,4S-Me)}-P[Gly(octyl)][Leu(3R-OH)][Aib]LL[Aib][Aib][βAla]-{Piperazinyl(4-Me)}) | 398 nM | 214 nM | 125 nM | 2630 nM | 2930 nM
6 | CCCCCCCC[C@H](NC(=O)[C@@H]1CCCN1C(=O)CCCCC)C(=O)N[C@H](C(=O)NC(C)(C)C(=O)NC(C)(C)C(=O)NCCC(=O)N[C@@H](C)CN(C)C)[C@@H](C)O [Compound 5594, (2S)-N-[(1S)-1-[[(1S,2R)-1-[[2-[[2-[[3-[[(1S)-2-(dimethylamino)-1-methyl-ethyl]amino]-3-oxo-propyl]amino]-1,1-dimethyl-2-oxo-ethyl]amino]-1,1-dimethyl-2-oxo-ethyl]carbamoyl]-2-hydroxy-propyl]carbamoyl]nonyl]-1-hexanoyl-pyrrolidine-2-carboxamide] (Hexanoyl-P[Gly(octyl)]T[Aib][Aib][βAla]-{NH((S)CH(Me)CH2NMe2)}) | 571 nM | 2240 nM | 2320 nM | 6020 nM | 8610 nM
7 | CCCCCCCC[C@H](NC(=O)[C@@H]1CCCN1C(=O)CCCCC)C(=O)N[C@H](C(=O)N[C@@H](CC(C)C)C(=O)NC(C)(C)C(=O)NC(C)(C)C(=O)NCCC(=O)N[C@@H](C)CN(C)C)[C@@H](C)O [Compound 5596, (2S)-N-[(1S,2R)-1-{[(1S)-1-{[1-({1-[(2-{[(2S)-1-(dimethylamino)propan-2-yl]carbamoyl}ethyl)carbamoyl]-1-methylethyl}carbamoyl)-1-methylethyl]carbamoyl}-3-methylbutyl]carbamoyl}-2-hydroxypropyl]-2-{[(2S)-1-hexanoylpyrrolidin-2-yl]formamido}decanamide] (Hexanoyl-P[Gly(octyl)]TL[Aib][Aib][βAla]-{NH((S)CH(Me)CH2NMe2)}) | 791 nM | 667 nM | 1240 nM | 5030 nM | 7740 nM
8 | CCCCCCCC[C@H](NC(=O)[C@@H]1CCCN1C(=O)CCCCC)C(=O)N[C@H](C(=O)N[C@@H](CC(C)C)C(=O)N[C@@H](CC(C)C)C(=O)NC(C)(C)C(=O)NC(C)(C)C(=O)NCCC(=O)N[C@@H](C)CN(C)C)[C@@H](C)O [Compound 5598, (2S)-N-[(1S,2R)-1-{[(1S)-1-{[(1S)-1-{[1-({1-[(2-{[(2S)-1-(dimethylamino)propan-2-yl]carbamoyl}ethyl)carbamoyl]-1-methylethyl}carbamoyl)-1-methylethyl]carbamoyl}-3-methylbutyl]carbamoyl}-3-methylbutyl]carbamoyl}-2-hydroxypropyl]-2-{[(2S)-1-hexanoylpyrrolidin-2-yl]formamido}decanamide] (Hexanoyl-P[Gly(octyl)]TLL[Aib][Aib][βAla]-{NH((S)CH(Me)CH2NMe2)}) | 556 nM | 1240 nM | 2130 nM | 3780 nM | 6590 nM
9 | CCCCCCCC[C@H](NC(=O)[C@@H]1CCCN1C(=O)CCCCC)C(=O)N[C@H](C(=O)N[C@@H](CC(C)C)C(=O)N[C@@H](CC(C)C)C(=O)NC(C)(C)C(=O)NCCC(=O)N[C@@H](C)CN(C)C)[C@@H](C)O [Compound 5599, (2S)-N-[(1S,2R)-1-{[(1S)-1-{[(1S)-1-({1-[(2-{[(2S)-1-(dimethylamino)propan-2-yl]carbamoyl}ethyl)carbamoyl]-1-methylethyl}carbamoyl)-3-methylbutyl]carbamoyl}-3-methylbutyl]carbamoyl}-2-hydroxypropyl]-2-{[(2S)-1-hexanoylpyrrolidin-2-yl]formamido}decanamide] (Hexanoyl-P[Gly(octyl)]TLL[Aib][βAla]-{NH((S)CH(Me)CH2NMe2)}) | 4810 nM | 1940 nM | 3500 nM | 6950 nM | 8360 nM
